US20190225650A1, “PEPTIDOMIMETIC MACROCYCLES AND USE THEREOF IN REGULATING HIF1ALPHA” (AILERON THERAPEUTICS, INC., priority 2013, published 2019)
Bridge positions count the residues as written; N and C are the ends. Square brackets hold non-standard residues; d marks the D form. Peptide text beside a SMILES is read from it. R8 = C=CCCCCCC[C@@](C)(N)C(=O)O; S5 = C=CCCC[C@](C)(N)C(=O)O; Nle = CCCC[C@H](N)C(=O)O

Tests used:
[1] = test system: HRE-bla ME-180 cells; assay: Cell proliferation assay (viability, MTT, 1% FBS); format: cell-based, human
Outline: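 ME-180 cells (2×10^4/well) in Opti-MEM with 1% FBS were pretreated 16 h under normoxia (21% O2), vehicle 0.5% DMSO final. Incubation then continued under normoxia or hypoxia (1% O2); viable cells quantified by MTT-type CellTiter 96 assay.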

[2] = biological target: T1, flag-tagged HIF1α (AA 786-826) / His6-tagged p300 (AA 323-423) complex (Homo sapiens, UniProt Q09472); assay: HIF1α p300 displacement assay (TR FRET, +CHAPS); format: binding; conditions: read-out: IC50 (nM) (HIF1α_p300 Displacement + CHAPS)
T1 construct: His6-tagged p300 (AA 323-423); made in house; host or cells: E. coli (pETDuet vector)
Outline: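 The co-expressed flag-HIF1α (786-826)/His6-p300 (323-423) complex, purified from E. coli with 0.1 mM ZnSO4, was used at 300 nM final with competitor peptides for 1 h at room temperature. Buffer was 150 mM NaCl, 20 mM HEPES pH 7.4, 7.5 mM CHAPS and 1 mM DTT. Anti-Flag-K (0.5 μM) and anti-His-D2 (4 nM) were then added for 2 h, and IC50s were fitted from the TR-FRET ratio.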

[3] = test system: HRE-bla ME-180 cells; assay: Reporter gene assay (HRE-bla ME-180 HIF reporter, GeneBLAzer); format: cell-based, human; conditions: for EC50: 24 hour normoxia
Outline: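 A FRET β-lactamase readout of HIF transcription was used. After compound treatment in 0.3% DMSO/media under normoxic conditions, 20 μl of 6× LiveBLAzer-FRET B/G (CCF4-AM) substrate was added. Plates sat 3 hr at room temperature in the dark and were read at 409 Ex/460Em and 409Ex/530Em on a Synergy 2. Inhibition was compared against DMSO vehicle controls, with chetomin as positive control.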

Row | Structure (SMILES) | IC50 [2] | EC50 [3] | Viability 1% FBS AVG (MTT V3-24 hr Normoxia) (μM) [1] | 18 h Avg % max inhibition at top conc (HIF Rptr-24 hrs normoxia) (μM) [3]
1 | CC[C@H](C)[C@H](NC(=O)[C@H](Cc1ccccc1)NC(C)=O)C(=O)N[C@@H](CC(=O)O)C(=O)N[C@@H](CCC(=O)O)C(=O)N[C@@H](CCC(=O)O)C(=O)N[C@H](C(=O)N[C@@H](CC(C)C)C(=O)N[C@@H](CCSC)C(=O)N[C@@]1(C)CCCC=CCCC[C@@](C)(C(=O)N[C@@H](CCSC)C(=O)N[C@@H](C)C(=O)N[C@@H](CC(C)C)C(=O)N[C@@H](CC(=O)O)C(=O)N[C@@H](CCCNC(=N)N)C(N)=O)NC(=O)[C@H]([C@@H](C)CC)NC(=O)[C@H](C(C)C)NC(=O)[C@H](CC(C)C)NC1=O)C(C)C [SP-281] (Ac-FIDEEVLM[S5]LVI[S5]MALDR-NH2; staple 9-13) | 400 to 700 nM | 5 to 15 µM | ++++ (≥30: ++++) | ++++ (≥50: ++++)
2 | CCCC[C@H](NC(=O)[C@H](CCC(=O)O)NC(=O)[C@@H](NC(=O)[C@@H](NC(=O)[C@H](CC(C)C)NC(=O)[C@]1(C)CCCC=CCCC[C@](C)(NC(=O)[C@H](CCC(=O)O)NC(=O)[C@H](CC(=O)O)NC(=O)[C@@H](NC(=O)[C@H](Cc2ccccc2)NC(C)=O)[C@@H](C)CC)C(=O)N[C@@H]([C@@H](C)O)C(=O)N[C@@H](CC(C)C)C(=O)N[C@@H](CCCC)C(=O)N1)C(C)C)[C@@H](C)CC)C(=O)N[C@@H](C)C(=O)N[C@@H](CC(C)C)C(N)=O [SP-139] (Ac-FIDE[S5]TL[Nle][S5]LVIE[Nle]AL-NH2; staple 5-9) | 400 to 700 nM | > 30 µM | ++ (≤5 but <15: ++) | +++ (≤25 but <50: +++)
3 | CCCC[C@H](NC(=O)[C@H](Cc1ccccc1)NC(=O)[C@@H](NC(=O)[C@H](CCC(N)=O)NC(=O)[C@H](CCC(N)=O)NC(=O)[C@H](CC(N)=O)NC(=O)[C@@H](NC(=O)[C@H](Cc1ccccc1)NC(C)=O)[C@@H](C)CC)C(C)C)C(=O)N[C@@]1(C)CCCC=CCCC[C@@](C)(C(=O)N[C@@H](CCCC)C(=O)N[C@@H](C)C(=O)N[C@@H](CC(C)C)C(=O)N[C@@H](CC(C)C)C(N)=O)NC(=O)[C@H]([C@@H](C)CC)NC(=O)[C@H](C(C)C)NC(=O)[C@H](CC(C)C)NC1=O [SP-248] (Ac-FINQQVF[Nle][S5]LVI[S5][Nle]ALL-NH2; staple 9-13) | > 700 nM | > 30 µM | ++++ (≥30: ++++) | +++ (≤25 but <50: +++)
4 | CCCC[C@H](NC(=O)[C@H](C)NC(=O)[C@]1(C)CCCC=CCCCCCC[C@@](C)(NC(=O)[C@H](CCC(=O)O)NC(=O)[C@H](CC(=O)O)NC(=O)[C@@H](NC(=O)[C@H](Cc2ccccc2)NC(C)=O)[C@@H](C)CC)C(=O)N[C@@H](C(C)C)C(=O)N[C@@H](CC(C)C)C(=O)N[C@@H](CCCC)C(=O)N[C@@H](CO)C(=O)N[C@@H](CC(C)C)C(=O)N[C@@H](C(C)C)C(=O)N1)C(=O)N[C@@H](C)C(=O)N[C@@H](CC(C)C)C(=O)N[C@@H](CC(=O)O)C(=O)N[C@@H](C)C(=O)N[C@H](C(N)=O)[C@@H](C)CC [SP-191] (Ac-FIDE[R8]VL[Nle]SLV[S5]A[Nle]ALDAI-NH2; staple 5-12) | 200 to 400 nM | > 30 µM | ++++ (≥30: ++++) | ++ (≤10 but <25: ++)
5 | CC[C@H](C)[C@H](NC(=O)[C@H](Cc1ccccc1)NC(C)=O)C(=O)N[C@@H](CC(=O)O)C(=O)N[C@@H](CCC(=O)O)C(=O)N[C@@H](CCC(=O)O)C(=O)N[C@H](C(=O)N[C@@H](CC(C)C)C(=O)N[C@@H](CCSC)C(=O)N[C@@]1(C)CCCC=CCCC[C@@](C)(C(=O)N[C@@H](CCSC)C(=O)N[C@@H](C)C(=O)N[C@@H](CC(C)C)C(N)=O)NC(=O)[C@H]([C@@H](C)CC)NC(=O)[C@H](C(C)C)NC(=O)[C@H](Cc2ccccc2)NC1=O)C(C)C [SP-236] (Ac-FIDEEVLM[S5]FVI[S5]MAL-NH2; staple 9-13) | > 700 nM | > 30 µM | ++++ (≥30: ++++) | +++ (≤25 but <50: +++)

Continued, in another order:

Row | IC50 [2] | EC50 [3] | Structure (SMILES) | Viability 1% FBS AVG (MTT V3-24 hr Normoxia) (μM) [1] | 18 h Avg % max inhibition at top conc (HIF Rptr-24 hrs normoxia) (μM) [3]
6 | 200 to 400 nM | > 30 µM | CCCC[C@H](NC(=O)[C@H](CCC(=O)O)NC(=O)[C@@H](NC(=O)[C@@H](NC(=O)[C@H](CC(C)C)NC(=O)[C@]1(C)CCCC=CCCC[C@](C)(NC(=O)[C@H](CCC(=O)O)NC(=O)[C@H](CC(=O)O)NC(=O)[C@@H](NC(=O)[C@H](Cc2ccccc2)NC(=O)[C@H](CCCCN)NC(C)=O)[C@@H](C)CC)C(=O)N[C@@H](C(C)C)C(=O)N[C@@H](CC(C)C)C(=O)N[C@@H](CCCC)C(=O)N1)C(C)C)[C@@H](C)CC)C(=O)N[C@@H](C)C(=O)N[C@@H](CC(C)C)C(N)=O [SP-134] (Ac-KFIDE[S5]VL[Nle][S5]LVIE[Nle]AL-NH2; staple 6-10) | ++++ (≥30: ++++) | +++ (≤25 but <50: +++)
7 | 200 to 400 nM | > 30 µM | CCCC[C@H](NC(=O)[C@]1(C)CCCC=CCCC[C@](C)(NC(=O)[C@H](CCCC)NC(=O)[C@H](CC(C)C)NC(=O)[C@@H](NC(=O)[C@H](CCC(=O)O)NC(=O)[C@H](CCC(=O)O)NC(=O)[C@H](CC(=O)O)NC(=O)[C@@H](NC(=O)[C@H](CC(N)=O)NC(=O)[C@@H](NC(=O)[C@]2(C)CCCC=CCCCCCC[C@@](C)(NC(=O)[C@H](CCC(=O)O)NC(C)=O)C(=O)N[C@@H](CC(C)C)C(=O)N[C@@H](CC(C)C)C(=O)N[C@@H](CCCNC(=N)N)C(=O)N[C@@H](C)C(=O)N[C@@H](CC(C)C)C(=O)N[C@@H](CC(=O)O)C(=O)N2)C(C)C)[C@@H](C)CC)C(C)C)C(=O)N[C@@H](CC(C)C)C(=O)N[C@@H](C(C)C)C(=O)N[C@@H]([C@@H](C)CC)C(=O)N1)C(N)=O [SP-351] (Ac-E[R8]LLRALD[S5]VNIDEEVL[Nle][S5]LVI[S5][Nle]-NH2; staple 2-9, 19-23) | ++++ (≥30: ++++) | ++ (≤10 but <25: ++)
8 | ≤ 200 nM | > 30 µM | CCCC[C@@H]1NC(=O)[C@H](CC(C)C)NC(=O)[C@](C)(NC(=O)[C@H](CCC(=O)O)NC(=O)[C@H](CCC(=O)O)NC(=O)[C@H](CC(=O)O)NC(=O)[C@@H](NC(=O)[C@H](Cc2ccccc2)NC(C)=O)[C@@H](C)CC)CCCCCCC=CCCC[C@@](C)(C(=O)N[C@@H](CCCC)C(=O)N[C@@H](C)C(=O)N[C@@H](CC(C)C)C(=O)N[C@@H](CC(=O)O)C(=O)N[C@@H](CCCNC(=N)N)C(=O)N[C@H](C(N)=O)[C@@H](C)CC)NC(=O)[C@H]([C@@H](C)CC)NC(=O)[C@H](C(C)C)NC(=O)[C@H](CC(C)C)NC(=O)[C@H](CO)NC1=O [SP-200] (Ac-FIDEE[R8]L[Nle]SLVI[S5][Nle]ALDRI-NH2; staple 6-13) | ++++ (≥30: ++++) | ++++ (≥50: ++++)
9 | > 700 nM | > 30 µM | CC[C@H](C)[C@H](NC(=O)[C@H](CCCNC(=N)N)NC(=O)[C@H](CC(=O)O)NC(=O)[C@H](CC(C)C)NC(=O)[C@H](C)NC(=O)[C@H](CCSC)NC(=O)[C@]1(C)CCCC=CCCC[C@](C)(NC(=O)[C@H](CCSC)NC(=O)[C@H](Cc2ccccc2)NC(=O)[C@@H](NC(=O)[C@H](C)NC(=O)[C@H](CCC(N)=O)NC(=O)[C@H](CC(=O)O)NC(=O)[C@@H](NC(=O)[C@H](Cc2ccccc2)NC(C)=O)[C@@H](C)CC)C(C)C)C(=O)N[C@@H](CC(C)C)C(=O)N[C@@H](C(C)C)C(=O)N[C@@H]([C@@H](C)CC)C(=O)N1)C(N)=O [SP-268] (Ac-FIDQAVFM[S5]LVI[S5]MALDRI-NH2; staple 9-13) | ++++ (≥30: ++++) | +++ (≤25 but <50: +++)
10 | > 700 nM | 5 to 15 µM | CC[C@H](C)[C@H](NC(=O)[C@H](Cc1ccccc1)NC(C)=O)C(=O)N[C@@H](CC(=O)O)C(=O)N[C@@H](CCC(=O)O)C(=O)N[C@@H](CCC(=O)O)C(=O)N[C@H](C(=O)N[C@@H](CC(C)C)C(=O)N[C@@H](CCSC)C(=O)N[C@@]1(C)CCCC=CCCC[C@@](C)(C(=O)N[C@@H](CCSC)C(=O)N[C@@H](C)C(=O)N[C@@H](CC(C)C)C(=O)N[C@@H](CO)C(=O)N[C@@H](CCCNC(=N)N)C(N)=O)NC(=O)[C@H]([C@@H](C)CC)NC(=O)[C@H](C(C)C)NC(=O)[C@H](CC(C)C)NC1=O)C(C)C [SP-287] (Ac-FIDEEVLM[S5]LVI[S5]MALSR-NH2; staple 9-13) | ++++ (≥30: ++++) | ++++ (≥50: ++++)
